The target in one experiment is HDAC5 (Homo sapiens, UniProt Q9UQL6). The experiment can be described thus: HDAC isoform inhibition, HDAC5. The experiment is classed as biochemical.
The target of the next experiment is T1, HDAC10 (Homo sapiens, UniProt Q969S8).
T1 sequence (Q969S8 1-669): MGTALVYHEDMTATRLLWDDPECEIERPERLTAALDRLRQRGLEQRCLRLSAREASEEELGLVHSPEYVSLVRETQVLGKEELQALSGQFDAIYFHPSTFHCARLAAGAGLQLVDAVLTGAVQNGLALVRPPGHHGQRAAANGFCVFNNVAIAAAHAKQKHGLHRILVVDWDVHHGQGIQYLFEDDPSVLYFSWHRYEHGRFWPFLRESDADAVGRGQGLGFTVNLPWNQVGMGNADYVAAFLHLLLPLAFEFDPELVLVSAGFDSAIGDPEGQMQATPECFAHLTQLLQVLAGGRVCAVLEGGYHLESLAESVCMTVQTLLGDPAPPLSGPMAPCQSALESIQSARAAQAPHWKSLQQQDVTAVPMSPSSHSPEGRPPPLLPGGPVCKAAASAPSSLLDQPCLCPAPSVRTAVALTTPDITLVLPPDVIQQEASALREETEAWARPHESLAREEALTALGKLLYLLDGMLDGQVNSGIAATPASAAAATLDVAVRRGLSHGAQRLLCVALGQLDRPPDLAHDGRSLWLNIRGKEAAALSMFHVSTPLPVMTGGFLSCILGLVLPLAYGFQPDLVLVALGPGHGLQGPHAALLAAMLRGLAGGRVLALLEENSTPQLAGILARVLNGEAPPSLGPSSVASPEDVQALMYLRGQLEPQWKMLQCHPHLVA
The experiment can be described thus: In vitro HDAC inhibition assay, HDAC10. The experiment is classed as biochemical.

For a further experiment, the target named is T2, HDAC7 (Homo sapiens, UniProt Q8WUI4).
T2 sequence (Q8WUI4 1-952): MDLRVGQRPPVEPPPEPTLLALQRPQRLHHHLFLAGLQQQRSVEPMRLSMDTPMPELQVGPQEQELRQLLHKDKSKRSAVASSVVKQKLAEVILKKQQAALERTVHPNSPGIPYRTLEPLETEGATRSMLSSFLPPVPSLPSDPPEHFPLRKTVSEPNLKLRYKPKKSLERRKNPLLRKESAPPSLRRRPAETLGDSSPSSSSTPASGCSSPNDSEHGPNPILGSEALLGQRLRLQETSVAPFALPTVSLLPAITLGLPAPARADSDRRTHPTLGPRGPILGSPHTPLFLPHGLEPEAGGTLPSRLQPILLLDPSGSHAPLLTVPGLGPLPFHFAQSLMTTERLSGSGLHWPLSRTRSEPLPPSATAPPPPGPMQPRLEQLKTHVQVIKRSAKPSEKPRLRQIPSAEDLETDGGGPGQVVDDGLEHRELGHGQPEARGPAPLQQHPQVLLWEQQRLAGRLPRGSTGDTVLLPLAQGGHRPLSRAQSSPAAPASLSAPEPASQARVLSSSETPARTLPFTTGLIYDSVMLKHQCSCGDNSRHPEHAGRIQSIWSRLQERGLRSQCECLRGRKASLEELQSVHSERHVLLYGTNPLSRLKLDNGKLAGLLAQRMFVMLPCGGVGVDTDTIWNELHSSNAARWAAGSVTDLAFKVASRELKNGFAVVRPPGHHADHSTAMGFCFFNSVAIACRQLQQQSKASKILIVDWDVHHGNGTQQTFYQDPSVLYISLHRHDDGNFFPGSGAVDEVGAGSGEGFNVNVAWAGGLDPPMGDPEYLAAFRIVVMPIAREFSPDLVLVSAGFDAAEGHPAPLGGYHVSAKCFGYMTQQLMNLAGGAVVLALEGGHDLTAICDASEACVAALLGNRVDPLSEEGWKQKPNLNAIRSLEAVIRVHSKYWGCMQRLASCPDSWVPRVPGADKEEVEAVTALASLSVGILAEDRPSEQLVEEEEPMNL
In words: HDAC isoform inhibition, HDAC7. It counts as biochemical.

The next experiment concerns BxPC3. The experiment can be described thus: In vitro growth inhibition (GI), MTS cell proliferation assay (Table 5), BxPC3. It counts as cell-based. To be noted: Homo sapiens, BXPC-3, 72 hours post-treatment.
For the next experiment, the system named is PANC1 cells. The experiment can be described thus: Scratch-wound cell migration assay. Also on record: key to Inhibition of cell migration, 24 h / Inhibition of cell migration, 48 h: Level of inhibition (high to low): +++, ++ or +; Level of inhibition (high to low): +++, ++ or +; Level of inhibition (high to low): +++, ++ or +; no inhibition: −. It counts as cell-based. As to the method: FIG. 2 contains photographs of PANC1 cells treated with present compounds 9 and 6 taken 24 and 48 hours (post wounding) after a scratch was made through a confluent layer of cells; and
PANC1 Cell migration and effect on T and NK Cells. The effect of HDAC6 inhibition on cell migration and cellular cytotoxicity was evaluated. […] Thus, these HDAC6-selective inhibitors could function well to block metastasis. However, in contrast to the effect observed on cell migration, none of the compounds tested affected CD8+ T cell or natural killer (NK) cell-mediated cytotoxicity, despite the ability of the compounds to substantially increase the levels of acetyl-tubulin in these cell lines.

A further experiment addresses HDAC9 (Homo sapiens, UniProt Q9UKV0). In words: HDAC isoform inhibition, HDAC9. The experiment is classed as biochemical.
The next experiment deals with Human HDAC1 (Homo sapiens, UniProt Q13547). The experiment can be described thus: In vitro HDAC inhibition assay, HDAC1. The settings on record: read-out: HDAC isoform IC50, HDAC1; NI = No inhibition at a concentration of 50 pM (footnote b).

SMILES strings stand for the structures.

HDAC5, sequence (Q9UQL6 whole entry, canonical isoform): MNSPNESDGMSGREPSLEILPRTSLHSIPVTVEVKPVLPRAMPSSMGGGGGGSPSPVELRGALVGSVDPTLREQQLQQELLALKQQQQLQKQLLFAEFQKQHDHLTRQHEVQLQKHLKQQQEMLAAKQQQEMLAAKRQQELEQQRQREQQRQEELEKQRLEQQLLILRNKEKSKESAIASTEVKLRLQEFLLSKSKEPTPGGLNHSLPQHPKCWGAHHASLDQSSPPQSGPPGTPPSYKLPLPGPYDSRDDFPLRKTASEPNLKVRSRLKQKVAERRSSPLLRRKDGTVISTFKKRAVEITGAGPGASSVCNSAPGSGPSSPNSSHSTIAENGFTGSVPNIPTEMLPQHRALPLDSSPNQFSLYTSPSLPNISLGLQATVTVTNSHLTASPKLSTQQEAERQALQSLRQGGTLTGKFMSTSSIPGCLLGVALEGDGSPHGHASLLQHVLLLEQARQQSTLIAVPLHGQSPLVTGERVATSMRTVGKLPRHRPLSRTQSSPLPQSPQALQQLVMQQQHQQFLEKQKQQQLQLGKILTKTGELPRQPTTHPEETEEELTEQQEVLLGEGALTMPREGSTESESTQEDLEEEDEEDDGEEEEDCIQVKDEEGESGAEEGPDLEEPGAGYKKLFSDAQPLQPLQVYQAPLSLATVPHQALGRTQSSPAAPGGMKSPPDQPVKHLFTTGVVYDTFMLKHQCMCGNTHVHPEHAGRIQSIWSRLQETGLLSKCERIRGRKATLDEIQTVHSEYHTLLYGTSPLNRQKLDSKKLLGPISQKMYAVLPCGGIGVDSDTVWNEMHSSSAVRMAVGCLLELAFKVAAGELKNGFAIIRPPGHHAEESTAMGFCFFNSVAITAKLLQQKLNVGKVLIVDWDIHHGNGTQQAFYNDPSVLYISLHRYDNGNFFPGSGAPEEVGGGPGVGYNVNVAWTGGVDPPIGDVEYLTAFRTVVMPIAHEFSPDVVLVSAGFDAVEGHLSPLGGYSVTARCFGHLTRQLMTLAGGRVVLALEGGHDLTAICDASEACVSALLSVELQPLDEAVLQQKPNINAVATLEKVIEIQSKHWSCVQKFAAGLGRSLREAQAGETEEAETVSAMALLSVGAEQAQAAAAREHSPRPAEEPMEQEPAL
HDAC9, sequence (Q9UKV0 whole entry, canonical isoform): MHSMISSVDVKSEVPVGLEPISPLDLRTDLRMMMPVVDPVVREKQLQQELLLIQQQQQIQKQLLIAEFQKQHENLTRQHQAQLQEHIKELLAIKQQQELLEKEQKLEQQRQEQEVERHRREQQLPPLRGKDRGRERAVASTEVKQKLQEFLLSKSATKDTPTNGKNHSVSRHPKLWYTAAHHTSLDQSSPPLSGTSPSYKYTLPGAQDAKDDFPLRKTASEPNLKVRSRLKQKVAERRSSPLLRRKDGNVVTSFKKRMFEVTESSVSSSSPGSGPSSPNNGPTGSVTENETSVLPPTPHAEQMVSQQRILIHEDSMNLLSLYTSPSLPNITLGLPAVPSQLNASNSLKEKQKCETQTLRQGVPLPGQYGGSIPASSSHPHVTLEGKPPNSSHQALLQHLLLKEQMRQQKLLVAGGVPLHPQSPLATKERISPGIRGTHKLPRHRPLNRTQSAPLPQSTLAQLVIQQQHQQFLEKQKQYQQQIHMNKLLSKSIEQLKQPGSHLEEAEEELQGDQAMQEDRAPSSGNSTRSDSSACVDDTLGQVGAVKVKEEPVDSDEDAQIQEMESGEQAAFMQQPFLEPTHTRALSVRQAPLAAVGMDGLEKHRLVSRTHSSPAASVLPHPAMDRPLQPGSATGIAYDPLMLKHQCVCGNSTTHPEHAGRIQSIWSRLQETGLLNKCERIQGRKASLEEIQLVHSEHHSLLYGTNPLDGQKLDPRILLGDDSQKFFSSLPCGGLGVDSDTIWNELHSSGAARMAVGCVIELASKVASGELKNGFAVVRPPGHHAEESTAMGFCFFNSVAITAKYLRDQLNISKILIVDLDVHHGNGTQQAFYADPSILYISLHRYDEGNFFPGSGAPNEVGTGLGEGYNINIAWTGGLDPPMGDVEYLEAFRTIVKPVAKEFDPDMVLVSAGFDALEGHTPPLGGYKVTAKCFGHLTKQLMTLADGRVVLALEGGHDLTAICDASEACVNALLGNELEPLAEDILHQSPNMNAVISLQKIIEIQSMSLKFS
Human HDAC1, sequence (Q13547 whole entry, canonical isoform): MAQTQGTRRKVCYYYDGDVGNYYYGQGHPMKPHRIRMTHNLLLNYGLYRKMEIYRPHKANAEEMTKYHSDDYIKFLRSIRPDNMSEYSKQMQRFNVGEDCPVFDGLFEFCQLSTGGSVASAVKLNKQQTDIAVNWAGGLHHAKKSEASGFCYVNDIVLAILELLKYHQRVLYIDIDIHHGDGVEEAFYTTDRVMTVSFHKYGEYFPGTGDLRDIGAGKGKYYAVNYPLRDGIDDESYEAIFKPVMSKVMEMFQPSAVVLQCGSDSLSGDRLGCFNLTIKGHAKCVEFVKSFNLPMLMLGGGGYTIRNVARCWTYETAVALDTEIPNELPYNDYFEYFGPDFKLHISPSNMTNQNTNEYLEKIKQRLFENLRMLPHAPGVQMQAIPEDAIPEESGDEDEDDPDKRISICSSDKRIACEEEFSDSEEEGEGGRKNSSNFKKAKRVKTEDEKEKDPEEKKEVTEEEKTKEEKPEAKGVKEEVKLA

The IC50 is the concentration at which inhibition is half-maximal. As a reminder, the GI50 is the concentration giving 50% growth inhibition. For `CC(C)(C)OC(=O)Nc1ccc(-c2cc(C(=O)NCCc3cc(C(=O)NO)no3)no2)cc1` [Compound 6, (4-{3-[2-(3-Hydroxycarbamoyl-isoxazol-5-yl)-ethylcarbamoyl]-isoxazol-5-yl}-phenyl)-carbamic acid tert-butyl ester], the IC50 was 34.5 µM against HDAC5; more than 100 µM on HDAC10 (NI = No inhibition at a concentration of 50 pM (footnote b), read-out: HDAC isoform IC50, HDAC10); 105 µM at HDAC7; 12.8 µM at HDAC9; 16.9 µM on Human HDAC1. Also, the “Selectivity for HDAC6 (fold) over HDAC5” value on HDAC5 stood at 5750 fold. The “Selectivity for HDAC6 (fold) over HDAC10” value at HDAC10 was more than 16000 fold. For the same molecule, the “Selectivity for HDAC6 (fold) over HDAC7” value on HDAC7 came out at 17500 fold. The GI50 in the experiment on BxPC3 stood at 29 µM. For the same molecule, the “Inhibition of cell migration, 24 h” value in the experiment on PANC1 cells (PANC1, 24 h post wounding) was “+”. The “Inhibition of cell migration, 48 h” value with PANC1 cells (PANC1, 48 h post wounding) is on record as “−”. Also, in the experiment on PANC1 cells (compared to diluent-treated control cells), the “Effect on PANC1 cell migration” value is on record as “partial effect”. Also, the “Selectivity for HDAC6 (fold) over HDAC9” value at HDAC9 is given as 2130 fold.

Source of the values: US11739064B2, “HDAC inhibitors and therapeutic methods using the same” (THE BOARD OF TRUSTEES OF THE UNIVERSITY OF ILLINOIS, priority 2015, dated 2023).
